# Earlier results as cited in paper PMC12144996 (Acta Pharmaceutica Sinica. B, 2025).
# Tested on: SARS-CoV-2 variants of concern (VOCs)
# Settings: cited from earlier work
smiles,measurement,value
CC(C)C(=O)OC[C@H]1O[C@@](C#N)(c2ccc3c(N)ncnn23)[C@H](O)[C@@H]1O [ATV006],Antiviral activity against SARS-CoV-2 variants of concern,potent antiviral activity
